Measured values taken from publication PMC8854749, “Celastrol Inhibits Canine Mammary Tumor Cells by Inducing Apoptosis via the Caspase Pathway” (Frontiers in Veterinary Science, 2022).

Assays:
Assay type in all cases: cell-based, canine
CMT-7364 cells [1] = assay: Colony formation assay; conditions: 0.3 μM or 0.9 μM for 24 h, then 10 days, vs control group
Experimental: (§1) CMT-7364 and CIPp cells were seeded in a 6-well cell culture plate at a concentration of 1 × 10^4 cells/well until they became adherent, cultured for another 24 h with serum-containing medium with 0 μM celastrol (control group), 0.3 μM celastrol, and 0.9 μM celastrol, respectively. Cells were treated with 0.25% trypsin (Gibco, NY, United States) and resuspended into single cells, each group of cells was seeded in a 6-well cell culture plate at 400 cells/well concentration, and cultured for 10 consecutive days. […] The cells were stained with 0.1% crystal violet, and photographed with a digital camera, followed by calculating the number of colonies.

CIPp cells [2] = assay: Colony formation assay; conditions: 0.3 μM or 0.9 μM for 24 h, then 10 days, vs control group
Experimental: as §1

CMT-7364 cells [3] = assay: Cell invasion (transwell, Matrigel) assay
Experimental: (§2) The transwell chambers were placed in a 24-well cell culture plate, each well was plated with 100 μl serum-free medium containing 5% Matrigel on the upper chamber, and placed in incubator at 37°C for 2 h. The excess media were pipetted out of the upper chamber, 100 μl of cell suspension with or without celastrol treatment (0.3 μM or 0.9 μM) were added at a concentration of 1 × 10^4 cells/ml in each upper chamber; the lower chambers were filled with 600 μl medium containing 10% serum for each well. […] PBS was used to rinse the chambers for 2 min with 3 times repeated, then the cells were fixed with methanol for 10 min, followed by distilled water rinsed for 2 min with 3 times repeated. Finally, cells were dyed with 0.1% crystal violet at room temperature for 20 min, and washed with distilled water until the water is colorless. Images of cell invasion were taken with an inverted microscope, and the stained cells represented the invasion cells were counted by a cell counter to analyze the cell invasion rate. The relative invasion rate = (cell number celastrol /cell number control) × 100%.

CIPp cells [4] = assay: Cell invasion (transwell, Matrigel) assay
Experimental: as §2

CMT-7364 cells [5] = assay: Annexin V-FITC/PI apoptosis detection, fluorescence microscope; conditions: 0.3 μM or 0.9 μM, 24 h, vs control group
Experimental: (§3) CMT-7364 and CIPp cells were seeded in a 6-well plate at a concentration of 1 × 10^5 cells/well, treated with different concentrations of celastrol (0, 0.3, 0.9 μM) for 24 h. Then cells were double-stained by Annexin V-FITC/PI, incubating at room temperature for 20 min in the dark, followed by observing with a fluorescence microscope. Green fluorescence represents Annexin V-FITC staining positive, and red fluorescence represents PI staining positive. Apoptotic cells were single-stained by green fluorescence, late apoptotic or necrotic cells were double-stained by green and red fluorescence, and normal cells were not stained by fluorescence. Finally, pictures of the cells were taken by a fluorescence microscope.

CIPp cells [6] = assay: as above; conditions: 0.3 μM or 0.9 μM, 24 h, vs control group
Experimental: as §3

CMT-7364 cells [7] = assay: qPCR of Caspase-3, Caspase-9, p21, p27 mRNA (2^-ΔΔCt, β-actin reference)
Experimental: (§4) After CMT-7364 and CIPp cells were treated with or without 0.9 μM celastrol for 24 h, TRIzol was used to isolate the total RNA of the cells. The RNA was then reverse transcribed into cDNA using a reverse transcriptase kit. A 20 μl reaction system was prepared according to the manufacturer's instructions and tested in the Real-Time PCR System (Long Gene Q1000, China). The results were analyzed by the 2^−ΔΔCt method: ΔΔCt = (target gene Ct of the experimental group-internal reference gene Ct of the experimental group)-(target gene Ct of the control group-internal reference gene Ct of the control group), β-actin was the internal reference gene.

CIPp cells [8] = assay: as above
Experimental: as §4

CMT-7364 cells [9] = assay: Cell Counting Kit-8 (CCK-8) cell viability; conditions: for IC50: Canis lupus familiaris, CCK-8
Experimental: (§5) CMT-7364, CIPp, and MDCK cells were plated in a 96-well plate with 2,000 cells per well and maintained in 5% CO2 at 37°C for 24 h until the cells adhered to the bottom. Then the medium was removed, the new media containing different concentrations (0, 0.1, 0.4, 0.6, 0.8, 1.2, and 1.6 μM) of celastrol were added, and incubated for 12, 24, 36, and 48 h. Ten microliters of the cell counting kit-8 (CCK-8) were added to each well for 1 h incubation. At each time point, the OD value was read by a microplate reader at 450 nm wavelength, and the cell viability with each drug concentration at different time points was calculated: cell relative viability=[(OD 450celastrol-OD 450blank) / (OD 450control-OD 450blank)] × 100%.

CIPp cells [10] = assay: Cell Counting Kit-8 (CCK-8) cell viability; conditions: for IC50: Canis lupus familiaris, CCK-8
Experimental: as §5

[11] = 0.9 μM, 24 h, relative to control
[12] = 0.3 and 0.9 μM, vs control group
[13] = CMT-7364, 0.9 μM celastrol, SYBR
[14] = CMT-7364 cells, 0.9 μM, 24 h, qPCR, vs control
[15] = test 1, CMT-7364 cells, 0.9 μM, instrument sheet, CMT-7364 control RQ 1
[16] = CIPp cells, 0.9 μM, 24 h, qPCR, vs control

## CC1=C(O)C(=O)C=C2C1=CC=C1[C@@]2(C)CC[C@@]2(C)[C@@H]3C[C@](C)(C(=O)O)CC[C@]3(C)CC[C@]12C [celastrol, Celastrol]
CMT-7364 cells [1]
  formation of colonies: significantly inhibited the formation of colonies
CIPp cells [2]
  formation of colonies: significantly inhibited the formation of colonies
CMT-7364 cells [3]; [11]
  invasion rate: 28.00 ± 1.53%
CMT-7364 cells [3]; [12]
  invasion ability: inhibited the invasion ability of CMT-7364 and CIPp cells in a dose-dependent manner
CIPp cells [4]; [11]
  invasion rate: 32.00 ± 1.73%
CIPp cells [4]; [12]
  invasion ability: inhibited the invasion ability of CMT-7364 and CIPp cells in a dose-dependent manner
CMT-7364 cells [5]
  green fluorescence (Annexin V-FITC, apoptotic cells): increased
CIPp cells [6]
  green fluorescence (Annexin V-FITC, apoptotic cells): increased
CMT-7364 cells [7]; [13]
  RQ Max, caspase-9: 2.21
  RQ Max, p-27: 1.96
  RQ Max, β-actin: 1.84
  RQ Min, caspase-9: 0.45
  RQ Min, p-21: 0
  RQ Min, p-27: 0.51
  RQ Min, β-actin: 0.54
  RQ, caspase-9: 1
  RQ, p-21: 1
  RQ, p-27: 1
  RQ, β-actin: 1
CMT-7364 cells [7]; [14]
  mRNA expression level of Caspase-3: significantly up-regulated
  mRNA expression level of Caspase-9: significantly up-regulated
  mRNA expression level of p21: up-regulated
  mRNA expression level of p27: up-regulated
CMT-7364 cells [7]; [15]
  RQ, caspase-3: 0.26
  RQ, caspase-9: 0.29
  RQ, p-21: 0.53
  RQ, p-27: 0.19
CMT-7364 cells [7]; test 2, CMT-7364 cells, 0.9 μM, instrument sheet, this sample is the calibrator (ΔΔCt 0.00), CMT-7364 control RQ 1.47
  RQ, p-27: 1
CMT-7364 cells [7]; test 2, CMT-7364 cells, 0.9 μM, instrument sheet, this sample is the calibrator (ΔΔCt 0.00), CMT-7364 control RQ 25.61
  RQ, caspase-9: 1
CMT-7364 cells [7]; test 2, CMT-7364 cells, 0.9 μM, instrument sheet, this sample is the calibrator (ΔΔCt 0.00), CMT-7364 control RQ 51.05
  RQ, p-21: 1
CIPp cells [8]; [16]
  mRNA expression level of Caspase-3: significantly up-regulated
  mRNA expression level of Caspase-9: significantly up-regulated
  mRNA expression level of p21: up-regulated
  mRNA expression level of p27: up-regulated
CIPp cells [8]; CIPp, 0.9 μM celastrol, SYBR
  RQ Max, caspase-9: 2.2
  RQ Max, p-21: 155.13
  RQ Max, p-27: 4.26
  RQ Max, β-actin: 0.51
  RQ Min, caspase-9: 0.78
  RQ Min, p-21: 3.13
  RQ Min, p-27: 1.54
  RQ Min, β-actin: 0.16
  RQ, caspase-9: 1.31
  RQ, p-21: 22.02
  RQ, p-27: 2.56
  RQ, β-actin: 0.29
CIPp cells [8]; test 1, CIPp cells, 0.9 μM, instrument sheet, calibrator CMT-7364 control RQ 1, CIPp control RQ 0.41
  RQ, caspase-9: 0.44
CIPp cells [8]; test 1, CIPp cells, 0.9 μM, instrument sheet, calibrator CMT-7364 control RQ 1, CIPp control RQ 0.46
  RQ, caspase-3: 0.42
CIPp cells [8]; test 1, CIPp cells, 0.9 μM, instrument sheet, calibrator CMT-7364 control RQ 1, CIPp control RQ 0.49
  RQ, p-21: 0.27
CIPp cells [8]; test 1, CIPp cells, 0.9 μM, instrument sheet, calibrator CMT-7364 control RQ 1, CIPp control RQ 0.59
  RQ, p-27: 0.17
CIPp cells [8]; test 2, CIPp cells, 0.9 μM, instrument sheet, calibrator CMT-7364 0.9 μM celastrol RQ 1, CIPp control RQ 156.08
  RQ, caspase-9: 8.49
CIPp cells [8]; test 2, CIPp cells, 0.9 μM, instrument sheet, calibrator CMT-7364 0.9 μM celastrol RQ 1, CIPp control RQ 156.97
  RQ, p-21: 12.17
CIPp cells [8]; test 2, CIPp cells, 0.9 μM, instrument sheet, calibrator CMT-7364 0.9 μM celastrol RQ 1, CIPp control RQ 162.87
  RQ, p-27: 12.46
CMT-7364 cells [9]; 0.1-1.6 μM, 12-48 h
  cell viability: decreased the viability of the cells in a dose- and time-dependent manner
CMT-7364 cells [9]; 24 h
  IC50: 1240 nM
CMT-7364 cells [9]; 48 h
  IC50: 1010 nM
CMT-7364 cells [9]; concentration <1.2 μM
  proliferation: significantly inhibited
CIPp cells [10]; 0.1-1.6 μM, 12-48 h
  cell viability: decreased the viability of the cells in a dose- and time-dependent manner
CIPp cells [10]; 24 h
  IC50: 1160 nM
CIPp cells [10]; 48 h
  IC50: 968 nM
CIPp cells [10]; concentration <1.2 μM
  proliferation: significantly inhibited
